Reference: ChEMBL document CHEMBL4270670 (J Med Chem, 2018)

What was measured:
Influenza A virus [1] = experiment: Antiviral activity against Influenza A virus H5N2 infected in specific pathogen free embryonated egg assessed as survival rate at 10 mM preincubated for 1 hr prior to inoculation measured after 48 hrs (reference value: 0%); format: functional
Influenza A virus [2] = experiment: Antiviral activity against Influenza A virus H5N2 infected in specific pathogen free embryonated egg assessed as survival rate at 2.5 mM preincubated for 1 hr prior to inoculation measured after 48 hrs (reference value: 0%); format: functional
Influenza A virus [3] = experiment: Antiviral activity against Influenza A virus H5N2 infected in specific pathogen free embryonated egg assessed as survival rate at 0.625 mM preincubated for 1 hr prior to inoculation measured after 48 hrs (reference value: 0%); format: functional
Influenza A virus [4] = experiment: Antiviral activity against Influenza A virus H5N2 infected in specific pathogen free embryonated egg assessed as survival rate at 0.156 mM preincubated for 1 hr prior to inoculation measured after 48 hrs (reference value: 0%); format: functional
Influenza A virus [5] = experiment: Antiviral activity against Influenza A virus H5N2 infected in specific pathogen free embryonated egg assessed as survival rate at 0.039 mM preincubated for 1 hr prior to inoculation measured after 48 hrs (reference value: 0%); format: functional
Influenza A virus [6] = experiment: Antiviral activity against Influenza A virus H5N2 infected in specific pathogen free embryonated egg assessed as survival rate at 10 mM preincubated for 1 hr prior to inoculation measured after 72 hrs (reference value: 0%); format: functional
Influenza A virus [7] = experiment: Antiviral activity against Influenza A virus H5N2 infected in specific pathogen free embryonated egg assessed as survival rate at 2.5 mM preincubated for 1 hr prior to inoculation measured after 72 hrs (reference value: 0%); format: functional
Influenza A virus [8] = experiment: Antiviral activity against Influenza A virus H5N2 infected in specific pathogen free embryonated egg assessed as survival rate at 0.625 mM preincubated for 1 hr prior to inoculation measured after 72 hrs (reference value: 0%); format: functional
Influenza A virus [9] = experiment: Antiviral activity against Influenza A virus H5N2 infected in specific pathogen free embryonated egg assessed as survival rate at 0.156 mM preincubated for 1 hr prior to inoculation measured after 72 hrs (reference value: 0%); format: functional
Influenza A virus [10] = experiment: Antiviral activity against Influenza A virus H5N2 infected in specific pathogen free embryonated egg assessed as survival rate at 0.039 mM preincubated for 1 hr prior to inoculation measured after 72 hrs (reference value: 0%); format: functional
[11] = MRT (0 to infinity) in Sprague-Dawley rat at 2 mg/kg, iv by LC-MS analysis; format: ADME, organism-based; conditions: in vivo
Rattus norvegicus [12] = experiment: Half life in Sprague-Dawley rat at 2 mg/kg, iv by LC-MS analysis; format: ADME, organism-based; conditions: in vivo
Rattus norvegicus [13] = experiment: Tmax in Sprague-Dawley rat at 2 mg/kg, iv by LC-MS analysis; format: ADME, organism-based; conditions: in vivo
Rattus norvegicus [14] = experiment: Clearance in Sprague-Dawley rat at 2 mg/kg, iv by LC-MS analysis; format: ADME, organism-based; conditions: in vivo
Rattus norvegicus [15] = experiment: Volume of distribution in Sprague-Dawley rat at 2 mg/kg, iv by LC-MS analysis; format: ADME, organism-based; conditions: in vivo
Rattus norvegicus [16] = experiment: Bioavailability in Sprague-Dawley rat at 2 mg/kg, iv by LC-MS analysis; format: ADME, organism-based; conditions: in vivo
[17] = MRT (0 to infinity) in Sprague-Dawley rat at 20 mg/kg, po by LC-MS analysis; format: ADME, organism-based; conditions: in vivo
Rattus norvegicus [18] = experiment: Half life in Sprague-Dawley rat at 20 mg/kg, po by LC-MS analysis; format: ADME, organism-based; conditions: in vivo
Rattus norvegicus [19] = experiment: Tmax in Sprague-Dawley rat at 20 mg/kg, po by LC-MS analysis; format: ADME, organism-based; conditions: in vivo
Rattus norvegicus [20] = experiment: Cmax in Sprague-Dawley rat at 20 mg/kg, po by LC-MS analysis; format: ADME, organism-based; parameters: dose 20 mg/kg, route oral; conditions: in vivo
[21] = Oral bioavailability in Sprague-Dawley rat at 20 mg/kg by LC-MS analysis; format: ADME, organism-based; conditions: in vivo
Mus musculus [22] = experiment: Acute toxicity in Kunming mouse at 2000 mg/kg, ig after 1 week; format: organism-based; conditions: in vivo, po, 168 h
Mus musculus [23] = experiment: Acute toxicity in Kunming mouse assessed as gross lesions at 2000 mg/kg, ig after 1 week; format: organism-based; conditions: in vivo, po, 168 h
Influenza B virus = conditions: mdck
Rattus norvegicus [24] = species on record: Rattus norvegicus; conditions: in vivo, iv, 2 mg/kg
Rattus norvegicus [25] = species on record: Rattus norvegicus; conditions: in vivo, po, 20 mg/kg
in vivo [26] = conditions: Sprague-Dawley, rat, iv, 2 mg/kg
in vivo [27] = conditions: Sprague-Dawley, rat, po, 20 mg/kg
in vitro [28] = conditions: chicken, chicken embryo fibroblasts
in vitro [29] = conditions: dog, MDCK cells
in vitro [30] = conditions: human, plasma
in vitro [31] = conditions: human, plasma; remark: listed apart in the source
in vitro [32] = conditions: human, plasma; remark: listed apart in the source
in vitro [33] = conditions: human, plasma; remark: listed apart in the source
in vitro [34] = conditions: human, plasma; remark: listed apart in the source
in vitro [35] = conditions: human, liver microsomes
in vitro [36] = conditions: human, liver microsomes; remark: listed apart in the source
in vitro [37] = conditions: human, liver microsomes; remark: listed apart in the source
in vitro [38] = conditions: human, liver microsomes; remark: listed apart in the source
Influenza A virus [39] = experiment: microbe, parasite or virus in culture; conditions: A/Puerto Rico/8/1934(H1N1), MDCK, 48 h
Influenza A virus [40] = experiment: microbe, parasite or virus in culture; conditions: MDCK, 48 h
[41] = human, microsomes, 20 min

Structure (SMILES): CCC(CC)O[C@@H]1C=C(C(=O)O)C[C@H](NCc2ccc(Sc3ccccc3)cc2)[C@H]1NC(C)=O
- survival at 10000 µM (Influenza A virus [1]): 100%
- survival at 2500 µM (Influenza A virus [2]): 80%
- survival at 625 µM (Influenza A virus [3]): 60%
- survival at 156 µM (Influenza A virus [4]): 0%
- survival at 39 µM (Influenza A virus [5]): 0%
- survival at 10000 µM (Influenza A virus [6]): 60%
- survival at 2500 µM (Influenza A virus [7]): 20%
- survival at 625 µM (Influenza A virus [8]): 0%
- survival at 156 µM (Influenza A virus [9]): 0%
- survival at 39 µM (Influenza A virus [10]): 0%
- MRT inf [11]: 2.03 h
- t1/2 (Rattus norvegicus [12]): 1.76 h
- Tmax (Rattus norvegicus [13]): 4.98 min
- CL (Rattus norvegicus [14]): 1.41 mL/h/kg
- Vd (Rattus norvegicus [15]): 3.51 L/kg
- F (Rattus norvegicus [16]): 100%
- MRT inf [17]: 4.05 h
- t1/2 (Rattus norvegicus [18]): 3.82 h
- Tmax (Rattus norvegicus [19]): 0.83 h
- Cmax (Rattus norvegicus [20]): 407 µg/mL
- bioavailability [21]: 10.3%
- Activity (Mus musculus [22]): Non-Toxic
- Activity (Mus musculus [23]): Non-Toxic
- EC50 (Influenza B virus): 19 µM
- AUC (Rattus norvegicus [24]): 1464.41 ng·h/mL
- AUC (Rattus norvegicus [25]): 1558.63 ng·h/mL
- AUC(0-t) (in vivo [26]): 1460 ng·h/mL
- AUC(0-t) (in vivo [27]): 1500 ng·h/mL
- CC50 at 48 h (in vitro [28]): > 200 µM
- CC50 at 48 h (in vitro [29]): > 250 µM
- remaining at 10 min, 2 µM (in vitro [30]): 102%
- remaining at 0.5 h, 2 µM (in vitro [31]): 100%
- remaining at 1 h, 2 µM (in vitro [32]): 100%
- remaining at 2 h, 2 µM (in vitro [33]): 91.6%
- half-life at 2 µM (in vitro [34]): > 4.82 h
- half-life at 2 uL (in vitro [35]): > 2.42 h
- microsomal CLint at 20 min, 2 uL (in vitro [36]): < 9.6 µL/min/mg
- remaining at 1 h, 2 uL (in vitro [37]): 101%
- remaining at 1 h, 2 uL (in vitro [38]): 115%
- EC50 (Influenza A virus [39]): 0.06 µM
- EC50 (Influenza A virus [40]): 71 µM

Structure (SMILES): CCC(CC)O[C@@H]1C=C(C(=O)O)C[C@H](NCc2ccc(-c3ccc(SC)cc3)cc2)[C@H]1NC(C)=O
- CC50 at 48 h (in vitro [28]): > 200 µM

Structure (SMILES): CCC(CC)O[C@@H]1C=C(C(=O)O)C[C@H](NCc2ccc(C(C)(C)C)cc2)[C@H]1NC(C)=O
- CC50 at 48 h (in vitro [28]): > 200 µM

Structure (SMILES): CCC(CC)O[C@@H]1C=C(C(=O)O)C[C@H](NCc2ccc(SC3CCCC3)cc2)[C@H]1NC(C)=O
- CC50 at 48 h (in vitro [28]): > 200 µM

Structure (SMILES): CCC(CC)Oc1cccc(CN[C@H]2CC(C(=O)O)=C[C@@H](OC(CC)CC)[C@@H]2NC(C)=O)c1
- CC50 at 48 h (in vitro [28]): > 200 µM

Structure (SMILES): CCC(CC)O[C@@H]1C=C(C(=O)O)C[C@H](NCc2ccc(S(=O)(=O)c3ccccc3)cc2)[C@H]1NC(C)=O
- CC50 at 48 h (in vitro [28]): > 200 µM

Structure (SMILES): CCC(CC)O[C@@H]1C=C(C(=O)O)C[C@H](NCc2ccc(OC)cc2)[C@H]1NC(C)=O
- EC50 (Influenza B virus): > 100 µM
- CC50 at 48 h (in vitro [28]): > 200 µM
- CC50 at 48 h (in vitro [29]): > 250 µM
- EC50 (Influenza A virus [39]): 3.7 µM
- EC50 (Influenza A virus [40]): > 100 µM

Structure (SMILES): CCC(CC)O[C@@H]1C=C(C(=O)O)C[C@H](NCc2ccc(SC3CCCCC3)cc2)[C@H]1NC(C)=O
- EC50 (Influenza B virus): > 100 µM
- CC50 at 48 h (in vitro [28]): > 200 µM
- CC50 at 48 h (in vitro [29]): > 250 µM
- EC50 (Influenza A virus [39]): 17 µM
- EC50 (Influenza A virus [40]): > 100 µM

Structure (SMILES): CCC(CC)O[C@@H]1C=C(C(=O)O)C[C@H](NCc2ccc(-c3csc4ccccc34)cc2)[C@H]1NC(C)=O
- CC50 at 48 h (in vitro [28]): > 200 µM

Structure (SMILES): CCC(CC)O[C@@H]1C=C(C(=O)O)C[C@H](NCc2ccc(C(C)C)cc2)[C@H]1NC(C)=O
- CC50 at 48 h (in vitro [28]): > 200 µM

Structure (SMILES): CCC(CC)O[C@@H]1C=C(C(=O)O)C[C@H](NCc2ccc(SCC(C)C)cc2)[C@H]1NC(C)=O
- CC50 at 48 h (in vitro [28]): > 200 µM

Structure (SMILES): O=C(O)Cc1ccccc1Nc1c(Cl)cccc1Cl [DICLOFENAC]
- CLH [41]: 5.28 mL/h/kg
- half-life at 2 uL (in vitro [35]): 0.237 h
- microsomal CLint at 20 min, 2 uL (in vitro [36]): 97.7 µL/min/mg
- remaining at 1 h, 2 uL (in vitro [37]): 5.4%
- remaining at 1 h, 2 uL (in vitro [38]): 103%

Structure (SMILES): CCC(CC)O[C@@H]1C=C(C(=O)O)C[C@H](N)[C@H]1NC(C)=O [OSELTAMIVIR CARBOXYLATE]
- survival at 10000 µM (Influenza A virus [1]): 60%
- survival at 2500 µM (Influenza A virus [2]): 20%
- survival at 625 µM (Influenza A virus [3]): 0%
- survival at 156 µM (Influenza A virus [4]): 0%
- survival at 39 µM (Influenza A virus [5]): 0%
- survival at 10000 µM (Influenza A virus [6]): 0%
- survival at 2500 µM (Influenza A virus [7]): 0%
- survival at 625 µM (Influenza A virus [8]): 0%
- survival at 156 µM (Influenza A virus [9]): 0%
- survival at 39 µM (Influenza A virus [10]): 0%
- EC50 (Influenza B virus): 2.9 µM
- CC50 at 48 h (in vitro [28]): > 200 µM
- CC50 at 48 h (in vitro [29]): > 250 µM
- EC50 (Influenza A virus [39]): 0.041 µM
- EC50 (Influenza A virus [40]): 1.2 µM

Structure (SMILES): CC(C)[N+](C)(CCOC(=O)C1c2ccccc2Oc2ccccc21)C(C)C.[Br-] [PROPANTHELINE BROMIDE]
- remaining at 10 min, 2 µM (in vitro [30]): 54.9%
- remaining at 0.5 h, 2 µM (in vitro [31]): 19.1%
- remaining at 1 h, 2 µM (in vitro [32]): 2.1%
- half-life at 2 µM (in vitro [34]): 0.18 h

Structure (SMILES): NC(=O)c1ncn([C@@H]2O[C@H](CO)[C@@H](O)[C@H]2O)n1 [RIBAVIRIN]
- CC50 at 48 h (in vitro [28]): > 200 µM

Structure (SMILES): CC(=O)N[C@H]1[C@H]([C@H](O)[C@H](O)CO)OC(C(=O)O)=C[C@@H]1NC(=N)N [ZANAMIVIR]
- EC50 (Influenza B virus): 0.9 µM
- CC50 at 48 h (in vitro [28]): > 200 µM
- CC50 at 48 h (in vitro [29]): > 250 µM
- EC50 (Influenza A virus [39]): 0.038 µM
- EC50 (Influenza A virus [40]): 0.3 µM
